Measured values taken from US20180148418A1, “AMIDO-SUBSTITUTED CYCLOHEXANE DERIVATIVES” (Bayer Pharma Aktiengesellschaft, priority 2015, published 2018).

Legend:
[1] = tested on: HEK293 cells cotransfected with the FOP control vector; assay: HEK293 FOP assay (control reporter with non-functional TCF elements); type: cell-based; details: Homo sapiens, 16 hours
Method in brief: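 Stable HEK293 line carrying FOP control reporter (randomized non-functional TCF sites, with pcDNA3), Geneticin-selected, plated 24 h before assay. Stimulated with recombinant human Wnt-3a (2500-5 ng/ml) and compounds 50 μM–15 nM (3.16-fold steps) in CAFTY buffer pH 7.4 with 2 mM Ca2+, 0.01% BSA, run parallel to TOP line.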

TNKS1 = molecular target: T1, TNKS1 (Homo sapiens, UniProt O95271); assay: TNKS1 Assay B (auto-parsylation, [3H]-NAD+ SPA); type: biochemical; details: 6 nM TNKS1, auto-parsylation, over night at room temperature
T1 construct: purchased BPS Bioscience, San Diego, USA 80579 (TNKS1 Histone Ribosylation Assay Kit)
T1 sequence (O95271 1-1327): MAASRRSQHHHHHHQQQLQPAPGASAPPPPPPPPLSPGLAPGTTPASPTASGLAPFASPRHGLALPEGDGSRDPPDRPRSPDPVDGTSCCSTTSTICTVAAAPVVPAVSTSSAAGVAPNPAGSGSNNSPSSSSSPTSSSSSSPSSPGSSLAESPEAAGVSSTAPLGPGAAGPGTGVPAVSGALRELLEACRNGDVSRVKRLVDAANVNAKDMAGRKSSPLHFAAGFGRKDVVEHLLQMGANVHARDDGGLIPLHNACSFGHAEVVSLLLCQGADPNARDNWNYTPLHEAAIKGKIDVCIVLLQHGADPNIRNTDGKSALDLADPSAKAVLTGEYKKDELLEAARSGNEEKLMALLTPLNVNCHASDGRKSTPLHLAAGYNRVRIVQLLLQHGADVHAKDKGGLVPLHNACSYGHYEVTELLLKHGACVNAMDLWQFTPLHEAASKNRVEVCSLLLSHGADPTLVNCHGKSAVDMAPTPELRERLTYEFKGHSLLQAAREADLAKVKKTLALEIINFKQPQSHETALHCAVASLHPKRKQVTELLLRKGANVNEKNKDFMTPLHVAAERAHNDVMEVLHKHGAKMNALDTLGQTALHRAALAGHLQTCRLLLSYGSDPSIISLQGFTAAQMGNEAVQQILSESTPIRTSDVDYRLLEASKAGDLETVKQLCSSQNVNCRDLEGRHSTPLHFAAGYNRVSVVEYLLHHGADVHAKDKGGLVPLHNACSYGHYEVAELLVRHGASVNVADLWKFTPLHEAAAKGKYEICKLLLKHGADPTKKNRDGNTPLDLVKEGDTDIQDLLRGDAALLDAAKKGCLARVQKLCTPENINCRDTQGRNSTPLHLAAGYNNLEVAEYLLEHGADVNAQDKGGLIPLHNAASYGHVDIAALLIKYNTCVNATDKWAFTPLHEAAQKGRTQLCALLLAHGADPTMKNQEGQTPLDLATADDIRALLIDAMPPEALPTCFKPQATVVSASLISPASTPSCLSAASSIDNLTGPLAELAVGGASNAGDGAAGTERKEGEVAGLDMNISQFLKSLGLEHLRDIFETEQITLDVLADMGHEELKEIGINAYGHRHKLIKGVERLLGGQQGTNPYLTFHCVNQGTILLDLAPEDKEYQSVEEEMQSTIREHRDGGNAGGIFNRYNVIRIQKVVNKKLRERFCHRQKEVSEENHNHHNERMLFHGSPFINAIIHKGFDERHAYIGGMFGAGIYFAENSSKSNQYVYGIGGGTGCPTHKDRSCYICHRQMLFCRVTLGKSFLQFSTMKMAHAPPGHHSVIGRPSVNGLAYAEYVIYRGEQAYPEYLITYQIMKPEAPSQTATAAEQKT

| SMILES | IC50 [1] [nM] | IC50 (TNKS1) [nM] |
| --- | --- | --- |
| CNC(=O)c1nc[nH]c1C(=O)N[C@H]1CC[C@H](C(=O)N(CCO)c2ccc(F)cc2Cl)CC1 [Example 157, N^5-{trans-4-[(2-chloro-4-fluorophenyl)(2-hydroxyethyl)carbamoyl]cyclohexyl}-N^4-methyl-1H-imidazole-4,5-dicarboxamide] | ≥ 50000 | 450 |
| CC1CCN(CCNC(=O)c2nc[nH]c2C(=O)N[C@H]2CC[C@@]3(CCN(c4ccc(F)cc4Cl)C3=O)CC2)CC1 [Example 160, N^5-[(trans)-2-(2-chloro-4-fluorophenyl)-1-oxo-2-azaspiro[4.5]dec-8-yl]-N^4-[2-(4-methylpiperidin-1-yl)ethyl]-1H-imidazole-4,5-dicarboxamide] | ≥ 50000 | 8 |
| O=C(NCCN1CCCCC1)c1nc[nH]c1C(=O)N[C@H]1CC[C@@]2(CCN(c3ccc(F)cc3Cl)C2=O)CC1 [Example 161, N^5-[(trans)-2-(2-chloro-4-fluorophenyl)-1-oxo-2-azaspiro[4.5]dec-8-yl]-N^4-[2-(piperidin-1-yl)ethyl]-1H-imidazole-4,5-dicarboxamide] | ≥ 50000 | 4.1 |
| CC(C)NC(=O)c1nc[nH]c1C(=O)N[C@H]1CC[C@@]2(CCN(c3ccc(F)cc3Cl)C2=O)CC1 [Example 162, N^5-[(trans)-2-(2-chloro-4-fluorophenyl)-1-oxo-2-azaspiro[4.5]dec-8-yl]-N^4-isopropyl-1H-imidazole-4,5-dicarboxamide] | 40000 | 13 |
| COCCNC(=O)c1nc[nH]c1C(=O)N[C@H]1CC[C@@]2(CCN(c3ccc(F)cc3Cl)C2=O)CC1 [Example 163, N^5-[(trans)-2-(2-chloro-4-fluorophenyl)-1-oxo-2-azaspiro[4.5]dec-8-yl]-N^4-(2-methoxyethyl)-1H-imidazole-4,5-dicarboxamide] | ≥ 50000 | 13 |
| O=C(NC1CC1)c1nc[nH]c1C(=O)N[C@H]1CC[C@@]2(CCN(c3ccc(F)cc3Cl)C2=O)CC1 [Example 165, N^5-[(trans)-2-(2-chloro-4-fluorophenyl)-1-oxo-2-azaspiro[4.5]dec-8-yl]-N^4-cyclopropyl-1H-imidazole-4,5-dicarboxamide] | 35000 | 12 |
| O=C(N[C@H]1CC[C@@]2(CCN(c3ccc(F)cc3Cl)C2=O)CC1)c1[nH]cnc1C(=O)N1CC(F)C1 [Example 166, N-[(trans)-2-(2-chloro-4-fluorophenyl)-1-oxo-2-azaspiro[4.5]dec-8-yl]-4-[(3-fluoroazetidin-1-yl)carbonyl]-1H-imidazole-5-carboxamide] | ≥ 50000 | 7.4 |
